Test results taken from publication PMC9763333, “In vitro characterization of immune modulating drug-eluting immunobeads towards transarterial embolization in cancer” (Scientific Reports, 2022).
Several values for one entry are separate records, joined by “and”; a condition that tells them apart may be missing. Equal values may be shown once. Read-outs that look alike come from different tables or passages of the source.

What was measured:
[1] = parameters: method as in PMID 28188808; details: 0.08 mmol irinotecan; cited from earlier work
[2] = Drug loading into DC Bead LUMI; assay type: physicochemical; details: for Relative percent drug loaded in DC Bead LUMI over time: listed as DSR; for Relative percent drug loaded (maximum, percent of SO3− available on a molar basis): mean (n = 3)
Description: DC Bead LUMI was analyzed for its elemental composition by MEDAC Inc. […] Drug loading was performed in triplicate as previously reported[45] with slight modifications. […] Washing of beads is often a critical step in drug release studies as any drug left unbound to the beads affects the release profile and exaggerates the early burst release. […] However, washing was discontinued for TLR drugs as drug was continually observed even after multiple washes. […] The amount of drug loaded at the specified time points was calculated by subtracting the amount of drug remaining from the initial amount of drug in the loading solution and the cumulative amount of drug withdrawn for sampling. The maximum drug loaded in the beads was calculated once no further change in the concentration in the loading solution could be measured and before washing the beads. The relative percent drug loaded was defined as the maximum amount of drug loaded as a percent of the amount of SO3^- ions available in the beads on a molar basis using the following formula and the results are presented as the mean ± SD.

[3] = Drug release from DC Bead LUMI in saline; assay type: physicochemical; details: for release in saline from DC Bead LUMI after multiple washes in deionized water: single replicates, listed as DSR
Description: […] Briefly, drug-loaded DC Bead LUMI or LC Bead (62.5 µL) were placed in vessels with 50 mL of saline ([…], pH 7.4) and were agitated with upright rocking motion at a set maximum rocking speed of 10 (70 rpm) for 144 h at 37 °C using Ward's® Rotating Mixer. At scheduled time intervals identical to the loading time points, 1 mL of release media was withdrawn and used for drug quantification. To maintain 50 mL total elution volume, 1 mL of fresh saline pre heated to 37 °C was replaced at each timepoint. […] 2.4. The cumulative amount of drug released at each time point was calculated by multiplying the concentration of each sample aliquot by the total volume (50 mL) of release media and adding the sum of the amount of drug removed for sampling at prior time points. […] The 50 mL volume was chosen to ensure infinite sink conditions where the maximum possible concentration of eluted drug would be at least 10 times more dilute than the maximum solubility. This ensures the rate of release is not affected by solution concentration but is only a function of interactions of the bead, drug, and saline.

[4] = Drug solubilization by salt formation in acid; assay type: physicochemical; details: T in °C in parentheses in the cell (20.1 or 21.1)
Description: The base form of each drug was suspended in deionized water and titrated with 0.1 N hydrochloric acid (Fisher Scientific, Hampton, NH) while stirring until all the base was solubilized and the volume adjusted to a final concentration of 2.5 mg/mL. The resulting solution was frozen, then lyophilized to yield solid drug-hydrochloride salt or used in its solubilized form for loading into DC Bead LUMI. […] Doxorubicin.HCl was readily solubilized and used without modification. […] A ZORBAX Eclipse Plus C8 reversed-phase column (Agilent) and UV detector at wavelength of 230 nm were used for GS-9620 analysis. The decomposition product of GS-9620 was analyzed with reversed phase high-performance liquid chromatography (Rp-HPLC) and LC/MS.

[5] = pKa measurement by triple titration in methanol–water co-solvent with Yasuda-Shedlovsky extrapolation; assay type: physicochemical; details: for pKa: methanol–water co-solvent, aqueous value by Yasuda-Shedlovsky extrapolation; for psKa1 / psKa2 / psKa3: methanol–water
Description: pKa measurements were performed by Pion Inc, UK Ltd using known methods as previously reported[47]–[50] or calculated by using software MoKa (Molecular Discovery, Borehamwood, Hertfordshire, UK, https://www.moldiscovery.com/software/moka/#references) or directly obtained from the literature. For GARD and DSR 6434, a triple titration was carried out under methanol–water co-solvent conditions from pH 2.0–12.0 at concentrations of 2.3–1.3 mM (the methanol mixing ratio varied from 49.0 to 28.9% w/w) and 1.5–0.9 mM (the methanol mixing ratio varied from 49.6 to 29.1% w/w), respectively.

[6] = Washing of drug-loaded beads with deionized water and microscopic appearance; assay type: physicochemical
Description: Drug loading was performed in triplicate as previously reported[45] with slight modifications. […] Washing of beads is often a critical step in drug release studies as any drug left unbound to the beads affects the release profile and exaggerates the early burst release. […] However, washing was discontinued for TLR drugs as drug was continually observed even after multiple washes. […] The amount of drug loaded at the specified time points was calculated by subtracting the amount of drug remaining from the initial amount of drug in the loading solution and the cumulative amount of drug withdrawn for sampling. The maximum drug loaded in the beads was calculated once no further change in the concentration in the loading solution could be measured and before washing the beads. The relative percent drug loaded was defined as the maximum amount of drug loaded as a percent of the amount of SO3^- ions available in the beads on a molar basis using the following formula and the results are presented as the mean ± SD.

Structure (SMILES): CCc1c2c(nc3ccc(OC(=O)N4CCC(N5CCCCC5)CC4)cc13)-c1cc3c(c(=O)n1C2)COC(=O)[C@]3(O)CC [irinotecan]
- time to load drug to DC Bead LUMI [1]: ≤ 10 min

Structure (SMILES): CCCCNc1nc(N)c2[nH]c(=O)n(Cc3ccc(OCCN(C)C)nc3)c2n1 [DSR 6434]
- Relative percent drug loaded in DC Bead LUMI over time ([2]; 5 min, single replicates): 39.5677% and 47.7348% and 48.9285%
- Relative percent drug loaded in DC Bead LUMI over time ([2]; 15 min, single replicates): 41.6488% and 50.8205% and 51.9687%
- Relative percent drug loaded in DC Bead LUMI over time ([2]; 30 min, single replicates): 42.6689% and 54.1338% and 55.2332%
- Relative percent drug loaded in DC Bead LUMI over time ([2]; 45 min, single replicates): 48.2468% and 57.0357% and 58.0924%
- Relative percent drug loaded in DC Bead LUMI over time ([2]; 60 min, single replicates): 49.3314% and 55.3694% and 56.4506%
- Relative percent drug loaded in DC Bead LUMI over time ([2]; 120 min, single replicates): 50.4129% and 60.3547% and 61.3625%
- Relative percent drug loaded in DC Bead LUMI over time ([2]; 180 min, single replicates): 49.4039% and 56.8373% and 57.8969%
- Relative percent drug loaded in DC Bead LUMI over time ([2]; 240 min, single replicates): 49.4386% and 53.9704% and 55.0722%
- Relative percent drug loaded in DC Bead LUMI over time ([2]; 300 min, single replicates): 48.7119% and 56.2576% and 57.3257%
- Relative percent drug loaded in DC Bead LUMI over time ([2]; 360 min, single replicates): 47.0211% and 54.6141% and 55.7064%
- Relative percent drug loaded in DC Bead LUMI over time ([2]; 420 min, single replicates): 47.0555% and 55.952% and 57.0246%
- Relative percent drug loaded in DC Bead LUMI over time ([2]; 480 min, single replicates): 47.3643% and 55.2849% and 56.3673%
- Relative percent drug loaded in DC Bead LUMI over time ([2]; 1440 min, single replicates): 46.9195% and 55.3847% and 56.4657%
- Relative percent drug loaded in DC Bead LUMI over time ([2]; 2880 min, single replicates): 43.3022% and 55.4842% and 56.5637%
- Relative percent drug loaded in DC Bead LUMI over time ([2]; 4320 min, single replicates): 46.6711% and 54.7234% and 55.8141%
- Relative percent drug loaded in DC Bead LUMI over time ([2]; 8640 min, single replicates): 45.7549% and 53.8658% and 54.9692%
- loading behaviour ([2]; DC Bead LUMI): Fast loading
- Relative percent drug loaded (maximum, percent of SO3− available on a molar basis) ([2]; DC Bead LUMI): 57%
- Relative percent drug loaded (maximum, percent of SO3− available on a molar basis) ([2]; DC Bead LUMI, listed as DSR-6434): 57.38%
- equivalent of drug loaded to sulfonated bead ([2]; DC Bead LUMI, mean ± SD): 0.16 ± 0.02 mM drug/ml beads
- Maximum drug loaded ([2]; DC Bead LUMI, mean ± SD, n = 3, base form except Dox (salt form)): 65.95 ± 6.96 mg drug/ml beads
- Maximum drug loaded (Triplicate), % ([2]; DC Bead LUMI, single replicates): 50.4129% and 60.3547% and 61.3625%
- Drug: sulfonate ([2]; molar ratio at maximum loading, DC Bead LUMI): 0.574
- Theoretical maximum loading level based on SO3− contents ([2]; per mL DC Bead LUMI, assuming 1:1 drug to sulfonate): 114.94 mg
- release in saline from DC Bead LUMI after multiple washes in deionized water ([3]; 5 min): 11.6669 mg/mL of beads and 21.0618 mg/mL of beads and 12.3038 mg/mL of beads
- release in saline from DC Bead LUMI after multiple washes in deionized water ([3]; 15 min): 12.2718 mg/mL of beads and 15.5382 mg/mL of beads and 12.6826 mg/mL of beads
- release in saline from DC Bead LUMI after multiple washes in deionized water ([3]; 30 min): 12.9372 mg/mL of beads and 16.3714 mg/mL of beads and 14.5502 mg/mL of beads
- release in saline from DC Bead LUMI after multiple washes in deionized water ([3]; 45 min): 13.4518 mg/mL of beads and 17.0028 mg/mL of beads and 14.9641 mg/mL of beads
- release in saline from DC Bead LUMI after multiple washes in deionized water ([3]; 60 min): 13.786 mg/mL of beads and 17.7202 mg/mL of beads and 15.5663 mg/mL of beads
- release in saline from DC Bead LUMI after multiple washes in deionized water ([3]; 120 min): 14.3607 mg/mL of beads and 18.3129 mg/mL of beads and 16.228 mg/mL of beads
- release in saline from DC Bead LUMI after multiple washes in deionized water ([3]; 180 min): 16.0563 mg/mL of beads and 19.309 mg/mL of beads and 16.8971 mg/mL of beads
- release in saline from DC Bead LUMI after multiple washes in deionized water ([3]; 240 min): 15.1532 mg/mL of beads and 19.1241 mg/mL of beads and 17.0694 mg/mL of beads
- release in saline from DC Bead LUMI after multiple washes in deionized water ([3]; 300 min): 15.5267 mg/mL of beads and 19.8574 mg/mL of beads and 17.3452 mg/mL of beads
- release in saline from DC Bead LUMI after multiple washes in deionized water ([3]; 360 min): 16.1146 mg/mL of beads and 19.776 mg/mL of beads and 18.2574 mg/mL of beads
- release in saline from DC Bead LUMI after multiple washes in deionized water ([3]; 420 min): 15.8596 mg/mL of beads and 19.8188 mg/mL of beads and 17.9345 mg/mL of beads
- release in saline from DC Bead LUMI after multiple washes in deionized water ([3]; 480 min): 16.4167 mg/mL of beads and 20.0149 mg/mL of beads and 17.9173 mg/mL of beads
- release in saline from DC Bead LUMI after multiple washes in deionized water ([3]; 1440 min): 16.847 mg/mL of beads and 20.6066 mg/mL of beads and 18.2918 mg/mL of beads
- release in saline from DC Bead LUMI after multiple washes in deionized water ([3]; 2880 min): 17.1212 mg/mL of beads and 20.6727 mg/mL of beads and 18.4291 mg/mL of beads
- release in saline from DC Bead LUMI after multiple washes in deionized water ([3]; 4320 min): 17.0504 mg/mL of beads and 20.4416 mg/mL of beads and 18.5897 mg/mL of beads
- release in saline from DC Bead LUMI after multiple washes in deionized water ([3]; 8640 min): 16.3092 mg/mL of beads and 19.4828 mg/mL of beads and 17.2615 mg/mL of beads
- release behaviour in saline ([3]; DC Bead LUMI): rapid release
- pH at which each drug dissolved for loading [4]: 1.65 (20.1)
- pKa ([5]; read-out: pKa (first, measured)): 4.58
- pKa ([5]; read-out: pKa (second, measured)): 8.5
- pKa ([5]; read-out: pKa (third, measured)): 9.94
- psKa1 ([5]; dielectric constant 56.6): 4.18
- psKa2 ([5]; dielectric constant 56.6): 8.14
- psKa3 ([5]; dielectric constant 56.6): 10.7073
- psKa1 ([5]; dielectric constant 61.4): 4.3
- psKa2 ([5]; dielectric constant 61.4): 8.24
- psKa3 ([5]; dielectric constant 61.4): 10.5143
- psKa1 ([5]; dielectric constant 65.9): 4.39
- psKa2 ([5]; dielectric constant 65.9): 8.34
- psKa3 ([5]; dielectric constant 65.9): 10.3389
- removal of drug from beads by repeated washing with deionized water ([6]; DC Bead LUMI): partially removed
- aggregation of drug during washing / elution ([6]; deionized water and saline, microscopy): absence of aggregated
